According to US11673899B2, “Crystal form of thieno[2,3-c]pyridazine-4(1H)-one compound, preparation method therefor and use thereof” (ZHANGZHOU PIEN TZE HUANG PHARMACEUTICAL CO., LTD., priority 2019, dated 2023):

Legend:
[1] = system: HFD+CCl4-induced NASH mouse model; assay: In vivo pharmacodynamic study in HFD+CCl4-induced NASH mouse model; conditions: HFD+CCl4 mice; 0.5, 1, 3 mg/kg by gavage QD day 0 to day 27; reference I-181 3 mg/kg
Text: To study the effect of a compound on improving NASH and liver fibrosis in an HFD+CCl4 mouse model, with I-181 as a reference compound.
I-181 is an acetyl-CoA carboxylase inhibitor and is currently undergoing a phase II clinical study on non-alcoholic fatty liver disease (NAFLD). The HFD+CCl4 mouse model used in this study is an animal model that simulates human non-alcoholic fatty liver disease evolving into NASH. High-fat diet leads to fat accumulation and steatosis in liver cells; CCl4 (intraperitoneal injection, twice a week) simulates the “second hit” of liver injury.
The modeling for this experiment included two steps: high-fat diet feeding and CCl4 induction. Firstly, the mice were fed with high-fat diet to induce non-alcoholic fatty liver, and the mice weighing more than (>) 38 g were selected and continuously fed with high-fat diet, accompanied by the intraperitoneal injection of 25% CCl4 ([…], twice a week, for a total of four weeks). The day of starting CCl4 administration was set as day 0, and the time of starting CCl4 administration was set as hour 0. On the day of starting CCl4 administration, the administration by gavage was started, and the administration volume of each group was 5 mL/kg, once a day for 4 weeks (28 days). The injection time of CCl4 should be more than 4 hours apart from the first administration time point of the day. […]

[2] = Stability of crystal form to light, heat and humidity; format: physicochemical; conditions: solid crystal form

Structure (SMILES): COc1ccccc1[C@H](Cn1nc(C(C)(C)C(=O)O)c(=O)c2c(C)c(-c3ncco3)sc21)OC1CCOCC1 [Compound of formula (I)]
- Efficacy in NAS [1]: the same efficacy as the reference compound at a higher dose
- Efficacy in fibrosis [1]: the same efficacy as the reference compound at a higher dose

Structure (SMILES): COc1ccccc1[C@H](Cn1nc(C(C)(C)C(=O)O)c(=O)c2c(C)c(-c3ncco3)sc21)OC1CCOCC1
- Stability (light, heat and humidity) [2]: stable, and less affected by light, heat and humidity
